The values that follow come from US11078222B2, “Hydroxybenzoic acid derivatives, methods and uses thereof” (UNiVERSIDADE DO PORTO, priority 2016, dated 2021).

SMILES strings stand for the structures.

Data set [1] in a line: DPPH radical scavenging activity (total antioxidant capacity). Conditions: ethanol, 515 nm, 45 min. The data set is classed as biochemical.
Description: (§1) The radical scavenging activity of AntiOxClNs was evaluated by means of total antioxidant capacity assays based on DPPH., ABTS.^+ and GO. radicals. All these methods involved the spectrophotometric measurement of the absorbance decrease resulting from radical (DPPH., ABTS.^+ or GO.) deactivation with an antioxidant. The results were expressed in IC50, which is defined as the minimum antioxidant concentration necessary to reduce the amount of radical by 50%. Antioxidant assays were performed in a multiplate reader (Powerwave XS Microplate Reader) from Bio Tech instruments.
A DPPH ethanolic solution (6.85 mM) was also prepared and then diluted to reach the absorbance of 0.72±0.02 at 515 nm. Each compound solution (20 μL) was added to 180 μL of DPPH. solution in triplicate, and the absorbance at 515 nm was recorded minutely over 45 minutes. […] Dose-response curves were established for the determination of IC50 values.
Data set [2] is described as follows: ABTS radical cation scavenging activity. The note with it: ethanol, 15 min. The data set is classed as biochemical.
Description: as §1
In an embodiment, the ABTS.^+ scavenging activity was evaluated as follows: ethanolic solutions of the test compounds with increasing concentrations (range between 10 μM and 500 μM) were prepared. ABTS. radical cation solution was obtained by addition of 150 mM aqueous potassium persulfate solution (163 μL) to 10 mL of 7 mM aqueous ABTS solution followed by storage in the dark at room temperature for 16 h (2.45 mM final concentration). The solution was then diluted in ethanol to reach the absorbance of 0.72±0.02. After addition of the compound (20 μL), in triplicate, to ABTS.^+ solution (180 μL) the spectrophotometric measurement was carried out each minute over 15 minutes. […] Dose-response curves were established for the determination of IC50 values.
Data set [3] can be described thus: Redox potential by differential pulse and cyclic voltammetry, glassy carbon electrode. The data set is classed as physicochemical. The note with it: physiological pH 7.4. On the procedure:
In an embodiment, the oxidative behaviour of the parent antioxidants (protocatechuic and gallic acids) and AntiOxBENs was evaluated at physiological pH 7.4, by differential pulse and cyclic voltammetry, using a glassy carbon working electrode. […] For pyrogallol derivatives (gallic acid, AntiOxBEN2, AntiOxBEN3), a significant decrease in redox potentials was observed (Ep=0.163-0.168 V) (Table 1).
In an embodiment, the electrochemical analytical data was obtained using a computer controlled potentiostat Autolab PGSTAT302N (Metrohm Autolab, Utrecht, Netherlands). Generally, cyclic voltammetry (CV) data was acquired at a scan rate of 50 mVs^−1. Differential pulse voltammetry (DPV) results were acquired at a step potential of 4 mV, pulse amplitude of 50 mV and scan rate of 8 mVs^−1. The electrochemical signals were monitored by the General Purpose Electrochemical System (GPES) version 4.9, software package. All electrochemical experiments were performed at room temperature in an electrochemical cell that was placed in a Faraday cage in order to minimize the contribution of background noise to the analytical signal.
In an embodiment, the process of evaluation of AntiOxBENs redox properties was conducted as follows: stock solutions of each compound (10 mM) were prepared by dissolving the appropriate amount in ethanol. The voltammetric working solutions were prepared in the electrochemical cell, at a final concentration of 0.1 mM. The […] supporting electrolyte was prepared by diluting 6.2 mL of 0.2 M dipotassium hydrogen phosphate and 43.8 mL of 0.2 M potassium dihydrogen phosphate to 100 mL. Voltammetric data was acquired in a three-electrode system consisting of a glassy carbon electrode (GCE, d=2 mm) as working electrode, a counter electrode of platinum wire and a saturated Ag/AgCl reference electrode. In an embodiment, the evaluation of AntiOxBENs lipophilic properties was performed as follows: the electrochemical cell was a four-electrode system with arrays of micro liquid-liquid interfaces (μITIES) containing two Ag/AgCl reference electrodes and two counter electrodes of Pt, one in each phase. The microporous membrane was sealed with a fluorosilicone sealant (Dow Corning 730) onto a glass cylinder which was filled with 4.0 mL of the aqueous phase, where the aliquots of AntiOxBENs solutions were added. The membrane was then immersed into the organic phase contained in the cell. The organic phase reference solution (a 2 mM BTPPACI+2 mM NaCl aqueous solution) was mechanically stabilized The aqueous supporting electrolyte solution was a Tris-HCl buffer 10 mM pH 7.0.

Data set [4] concerns rat liver mitochondria (RLM). Description: Mitochondrial uptake by energised RLM, TPP-selective electrode. The data set is classed as in vitro ADME. On the procedure: In an embodiment, and as an example, the mitochondrial uptake of some AntiOxBENs was assessed in isolated rat liver mitochondria (RLM) in response to the membrane potential. AntiOxBENs can accumulate inside mitochondria driven by the Δψ (FIG. 3A). Different AntiOxBENs accumulation outlines within the mitochondrial matrix have been measured. […] The following ranking order was attained: AntiOxBEN2<AntiOxBEN1<AntiOxBEN3.
In an embodiment, the AntiOxBENs mitochondria uptake by energized RLM was evaluated as follows: RLM (0.5 mg protein/mL) were incubated with AntiOxBENs at 37° C. under constant stirring in 1 mL of KCl medium (120 mM KCl, 10 mM HEPES, pH 7.2 and 1 mM EGTA). Five sequential 1 μM additions of each AntiOxBENs were performed to calibrate the electrode response in the presence of rotenone (1.5 μM). Then, succinate (10 mM) was added to generate […]. Valinomicin (0.2 μg/mL) was added at the end of the assay to dissipate Δψ. The measurements were performed with an ion-selective electrode, which measure the distribution of tetraphenylphosphonium cation (TPP+) and Ag/AgCl2 electrode as reference. The mitochondrial accumulation ratio was calculated by the disappearance of AntiOxBENs from extra- to intramitochondrial medium assuming an intramitochondrial volume of 0.5 μL/mg protein and a binding correction for the mitochondrial uptake of TPP compounds.

Data set [5] concerns rat liver mitochondria (RLM). Description: Mitochondrial respiration of isolated RLM (Clark-type oxygen electrode): RCR, ADP/O. The note with it: RLM. The data set is classed as biochemical. As for the experimental part:
In an embodiment, and as an example, the toxicity effects of some AntiOxBENs and MitoQ on the mitochondrial bioenergetics, namely on RLM Δψ and respiration parameters, were measured. The Δψ represents the main component of the electrochemical gradient generated by mitochondrial respiration and accounts for more than 90% of the total available energy. For mitochondrial respiration assays, glutamate/malate (for complex I) and succinate (for complex II) were used as substrates. In addition, the mitochondrial oxidative phosphorylation coupling index, known as respiratory control ratio (RCR, state 3/state 4 respiration) and ADP/O index (the coupling between ATP synthesis and oxygen consumption) were also calculated. AntiOxBENs and MitoQ were tested at antioxidant-relevant concentrations, with 10 μM being the highest concentration.
In an embodiment, the evaluation of AntiOxBENs effect on mitochondrial respiration was performed as follows: the respiration of isolated RLM was evaluated polarographically with a Clark-type oxygen electrode, connected to a suitable recorder in a 1 mL thermostated water-jacketed chamber with magnetic stirring, at 37° C. […] Increasing concentrations of AntiOxBENs (2.5-10 μM) were added to the reaction medium containing respiratory substrates glutamate/malate (10 mM and 5 mM respectively) or succinate (5 mM) and RLM (1 mg) and allowed to incubate for a 5 min period prior to the assay. State 2 was considered as the respiration during the 5 min incubation time with AntiOxBENs. […] State 4 was determined after ADP phosphorylation finished. Subsequent addition of oligomycin (2 μg/ml) inhibited ATPsynthase and originated the oligomycin-inhibition respiration state. Finally, 1 μM FCCP was added to induce uncoupled respiration. […] Data are means are means±SEM of seven independent experiments.

For data set [6], the system named is rat liver mitochondria (RLM) membranes. In words: RLM lipid peroxidation, TBARS assay (FeSO4/H2O2/ascorbate). The note with it: 5 μM, FeSO4/H2O2/ascorbate.

Regarding `O=C(NCCCCCC[P+](c1ccccc1)(c1ccccc1)c1ccccc1)c1ccc(O)c(O)c1.[Br-]` [AntiOxBEN1, 6-(3,4-dihydroxybenzamido)hexyltriphenylphosphonium bromide], the IC50 – broadly, the concentration needed to halve the response being measured – came to 27.3 µM in data set [1] and 29.9 µM in data set [2]. The “Ep (redox potential)” value in data set [3] is reported as 0.224 V. Moreover, the “accumulation ratio by rat liver mitochondria” value (“accumulation ratio” for short) in data set [4] (energised RLM, succinate) is recorded as “AntiOxBEN2<AntiOxBEN1<AntiOxBEN3”. For the same compound, the ADP/O in data set [5] (Glutamate/Malate, 2.5 μM) was 2.5 ± 0.2; in data set [5] (Glutamate/Malate, 5 μM), 2.8 ± 0.4; in data set [5] (Glutamate/Malate, 10 μM), 2.1 ± 0.1; in data set [5] (Succinate, 2.5 μM), 1.7 ± 0.03; in data set [5] (Succinate, 5 μM) it was 1.6 ± 0.1; in data set [5] (Succinate, 10 μM), 1.5 ± 0.1. Besides, the RCR in data set [5] (Glutamate/Malate, 2.5 μM) came out at 4.9 ± 0.6; in data set [5] (Glutamate/Malate, 5 μM), 4.4 ± 0.6; in data set [5] (Glutamate/Malate, 10 μM), 2.6 ± 0.1; in data set [5] (Succinate, 2.5 μM), 4.7 ± 0.3; in data set [5] (Succinate, 5 μM) it was 3.0 ± 0.3; in data set [5] (Succinate, 10 μM) it was 2.8 ± 0.3. The “prevention of TBARS formation / mitochondria lipid peroxidation” value in data set [6] is recorded as “not effective”.

`O=C(NCCCCCC[P+](c1ccccc1)(c1ccccc1)c1ccccc1)c1cc(O)c(O)c(O)c1.[Br-]` [AntiOxBEN2, 6-(3,4,5-trihydroxybenzamido)hexyltriphenylphosphonium bromide]: the concentration for half-maximal inhibition (IC50) was 18.3 µM in data set [1] and 10.3 µM in data set [2]. Further, the “Ep (redox potential)” value in data set [3] (listed as MitoBEN2) came to 0.168 V. Further, the “accumulation ratio” value in data set [4] (energised RLM, succinate) is reported as “AntiOxBEN2<AntiOxBEN1<AntiOxBEN3”. Besides, the ADP/O in data set [5] (Glutamate/Malate, 2.5 μM) is given as 2.3 ± 0.3; in data set [5] (Glutamate/Malate, 5 μM) it was 2.3 ± 0.2; in data set [5] (Glutamate/Malate, 10 μM) it was 2.1 ± 0.2; in data set [5] (Succinate, 2.5 μM), 1.7 ± 0.1; in data set [5] (Succinate, 5 μM) it was 1.7 ± 0.1; in data set [5] (Succinate, 10 μM), 1.6 ± 0.04. Further, the RCR amounted to 4.3 ± 0.6 in data set [5] (Glutamate/Malate, 2.5 μM); 3.9 ± 0.5 in data set [5] (Glutamate/Malate, 5 μM); 2.9 ± 0.3 in data set [5] (Glutamate/Malate, 10 μM); 5.2 ± 0.9 in data set [5] (Succinate, 2.5 μM); 3.8 ± 0.4 in data set [5] (Succinate, 5 μM); 3.5 ± 0.3 in data set [5] (Succinate, 10 μM). The “prevention of TBARS formation / mitochondria lipid peroxidation” value in data set [6] is on record as “most effective”.

On to `O=C(CCCCC[P+](c1ccccc1)(c1ccccc1)c1ccccc1)NCCCCCCNC(=O)c1cc(O)c(O)c(O)c1.[Br-]` [AntiOxBEN3, [5-(6-(3,4,5-trihydroxybenzamido)hexylamino)carbonylpentyl]triphenylphosphonium bromide], for which the IC50 turned out to be 18.7 µM in data set [1] and 9.6 µM in data set [2]. Further, the “Ep (redox potential)” value in data set [3] (listed as MitoBEN3) worked out at 0.164 V. Further, the “accumulation ratio” value in data set [4] (rat, 5 μM, pH 7.2) is “AntiOxBEN2<AntiOxBEN1<AntiOxBEN3”. Moreover, the ADP/O is 2.3 ± 0.2 in data set [5] (Glutamate/Malate, 2.5 μM); 2.3 ± 0.1 in data set [5] (Glutamate/Malate, 5 μM); 2.0 ± 0.2 in data set [5] (Glutamate/Malate, 10 μM); 1.6 ± 0.1 in data set [5] (Succinate, 2.5 μM); 1.6 ± 0.1 in data set [5] (Succinate, 5 μM); 1.7 ± 0.1 in data set [5] (Succinate, 10 μM). Moreover, the RCR was found to be 3.9 ± 0.5 in data set [5] (Glutamate/Malate, 2.5 μM); 3.9 ± 0.6 in data set [5] (Glutamate/Malate, 5 μM); 3.07 ± 0.6 in data set [5] (Glutamate/Malate, 10 μM); 4.1 ± 0.5 in data set [5] (Succinate, 2.5 μM); 4.3 ± 0.7 in data set [5] (Succinate, 5 μM); 3.9 ± 0.4 in data set [5] (Succinate, 10 μM). In data set [6], the “prevention of TBARS formation / mitochondria lipid peroxidation” value is “most effective”.
